Measurements reported in the NIST ThermoML archive (doi:10.1021/je900127m).

Assay: xn = mol fraction of the nth substance listed
Conditions: 313.15 K, Fluid (supercritical or subcritical phases), Bellows volumetry

O=C=O [carbon dioxide] + CCO
Conditions | mass density [kg/m3]
1000 kPa, x1 = 1 | 17.9
2000 kPa, x1 = 0.1 | 787.2
2000 kPa, x1 = 1 | 37.1
3000 kPa, x1 = 0.1 | 788.2
3000 kPa, x1 = 1 | 58.7
4000 kPa, x1 = 0.1 | 789.2
4000 kPa, x1 = 0.2 | 799.4
4000 kPa, x1 = 1 | 83.5
5000 kPa, x1 = 0.1 | 790.2
5000 kPa, x1 = 0.2 | 800.6
5000 kPa, x1 = 1 | 112.7
6000 kPa, x1 = 0.1 | 791.1
6000 kPa, x1 = 0.2 | 801.9
6000 kPa, x1 = 0.3 | 811.2
6000 kPa, x1 = 0.4 | 816.6
6000 kPa, x1 = 1 | 148.8
7000 kPa, x1 = 0.1 | 792.1
7000 kPa, x1 = 0.2 | 803.1
7000 kPa, x1 = 0.3 | 812.7
7000 kPa, x1 = 0.4 | 818.7
7000 kPa, x1 = 0.5 | 821.1
7000 kPa, x1 = 1 | 197.3
8000 kPa, x1 = 0.1 | 793.1
8000 kPa, x1 = 0.2 | 804.2
8000 kPa, x1 = 0.3 | 814.3
8000 kPa, x1 = 0.4 | 820.8
8000 kPa, x1 = 0.5 | 824
8000 kPa, x1 = 0.6 | 818.8
8000 kPa, x1 = 0.7 | 804.5
8000 kPa, x1 = 0.8 | 771.1
8000 kPa, x1 = 1 | 276.7
9000 kPa, x1 = 0.1 | 794
9000 kPa, x1 = 0.2 | 805.3
9000 kPa, x1 = 0.3 | 815.7
9000 kPa, x1 = 0.4 | 822.8
9000 kPa, x1 = 0.5 | 826.8
9000 kPa, x1 = 0.6 | 823
9000 kPa, x1 = 0.7 | 811.5
9000 kPa, x1 = 0.8 | 784.8
9000 kPa, x1 = 0.899 | 729.1
9000 kPa, x1 = 0.95 | 667
9000 kPa, x1 = 1 | 483.4
10000 kPa, x1 = 0.1 | 795
10000 kPa, x1 = 0.2 | 806.6
10000 kPa, x1 = 0.3 | 817.2
10000 kPa, x1 = 0.4 | 824.7
10000 kPa, x1 = 0.5 | 829.4
10000 kPa, x1 = 0.6 | 827
10000 kPa, x1 = 0.7 | 817.8
10000 kPa, x1 = 0.8 | 795.8
10000 kPa, x1 = 0.899 | 752.3
10000 kPa, x1 = 0.95 | 709.8
10000 kPa, x1 = 1 | 627.4

CCO [ethanol] + O=C=O
x2 = 0
Conditions | mass density [kg/m3]
1000 kPa | 773.1
2000 kPa | 773.9
3000 kPa | 774.8
4000 kPa | 775.5
5000 kPa | 776.4
6000 kPa | 777.2
7000 kPa | 778
8000 kPa | 778.8
9000 kPa | 779.6
10000 kPa | 780.4
